{
  "source": "patent US12338464B2",
  "about": "“Clonal strains of attenuated vaccinia viruses and methods of use thereof” (priority 2011, dated 2025)",
  "key": {"[1]": {"test_system": "A549 human lung carcinoma cells", "type": "cell-based", "settings": "5 μM ST-246"}, "[2]": {"test_system": "A549 human lung carcinoma xenografts", "assay": "A549 xenograft: tumor volume", "type": "in vivo, mouse", "settings": "2.5 μM ST-246 in addition to LIVP 5.1.1 or GLV-1h68"}, "[3]": {"assay": "A549 xenograft: average body weight", "settings": "2.5 μM ST-246"}},
  "data": [
    {"smiles": "O=C(NN1C(=O)[C@@H]2[C@@H]3C=C[C@@H]([C@H]4C[C@@H]34)[C@@H]2C1=O)c1ccc(C(F)(F)F)cc1", "note": "[ST-246]", "values": [
      {"measurement": "effect of ST-246 on eradication of A549 cells by LIVP 5.1.1 and GLV-1h68", "setting": "[1]", "value": "reduced the eradication of A549 cells"},
      {"measurement": "effect of ST-246 on tumor reduction by virus", "setting": "[2]", "value": "decreased the ability of each virus to reduce tumor size"},
      {"measurement": "effect of ST-246 on toxicity of virus", "setting": "[3]", "value": "reduced toxicity"}
    ]}
  ]
}
